According to patent publication US9982005B2, “Macrolides and methods of their preparation and use” (President and Fellows of Harvard College, priority 2013, dated 2018):
Converted amounts (≈) assume the structure as drawn. Where two headings read alike, the source gives them in different places.

Experiments:
Assay type in all cases: cell-based
E. coli strains = experiment: MIC against E. coli strains (Table M7); conditions: for MIC: Escherichia coli, ATCC25922, E. coli ATCC 25922
Text: (§1) We have collected MIC data for a total of 50 novel macrolides that this platform has produced against over 21 unique strains of B. subtilis, E. coli, S. aureus, S. pneumoniae, and H. influenzae, including several multidrug-resistant strains, with a special focus on macrolide resistant mechanisms (vide supra). Azithromycin was included as a control macrolide. CLSI standard procedures for broth dilution MIC determination were used. […] These genotypes can be constitutive or inducible. The finding that C4-epi (unnatural) isomers of the “azaketolide” macrolide class have enhanced activities relative to C4 natural isomers is very exciting.

S. aureus strains = experiment: MIC against S. aureus strains (Table M7); conditions: for MIC: Staphylococcus aureus
Text: as §1

S. pneumoniae strains = experiment: MIC against S. pneumoniae strains (Tables M7, M8); conditions: for MIC: Streptococcus pneumoniae
Text: CLSI standard procedures for broth dilution MIC determination were used. […] These genotypes can be constitutive or inducible.

E. faecalis strains = experiment: MIC against E. faecalis strains (Table M8); conditions: for MIC: Enterococcus faecalis, E. faecalis 29212
A. baumannii strains = experiment: MIC against A. baumannii strains (Table M8); conditions: for MIC: Acinetobacter baumannii, BAA747, A. baumannii BAA747-1
K. pneumoniae strains = experiment: MIC against K. pneumoniae strains (Table M8); conditions: for MIC: Klebsiella pneumoniae, K. pneumoniae 10031
H. influenzae strains = experiment: MIC against H. influenzae strains (Table M8); conditions: for MIC: Haemophilus influenzae
Text: as §1

[1] = ATCC29213, S. aureus ATCC 29213, read-out: MIC S. aureus (ATCC 29213)
[2] = S. aureus 183, read-out: MIC S. aureus (183)
[3] = S. aureus 506, read-out: MIC S. aureus (506)
[4] = S. aureus 1708, read-out: MIC S. aureus (1708)
[5] = USA300, S. aureus USA300, read-out: MIC S. aureus (USA300)
[6] = S. pneumoniae 160, read-out: MIC S. pneumonae (160)
[7] = S. pneumoniae 1509, read-out: MIC S. pneumoniae (1509)
[8] = S. pneumoniae 1533, read-out: MIC S. pneumoniae (1533)
[9] = S. pneumoniae 1537, read-out: MIC S. pneumoniae (1537)
[10] = S. pneumoniae 49619, read-out: MIC S. pneumoniae (49619)
[11] = H. influenzae 49247, read-out: MIC H. influenzae (49247)
[12] = H. influenzae 49766, read-out: MIC H. influenzae (49766)

Row | Compound | MIC (E. coli strains) [µg/mL] | MIC (S. aureus strains; [1]) [µg/mL] | MIC (S. aureus strains; [2]) [µg/mL] | MIC (S. aureus strains; [3]) [µg/mL] | MIC (S. aureus strains; [4]) [µg/mL] | MIC (S. aureus strains; [5]) [µg/mL] | MIC (S. pneumoniae strains; [6]) [µg/mL] | MIC (S. pneumoniae strains; [7]) [µg/mL] | MIC (S. pneumoniae strains; [8]) [µg/mL] | MIC (S. pneumoniae strains; [9]) [µg/mL] | MIC (S. pneumoniae strains; [10]) [µg/mL] | MIC (E. faecalis strains) [µg/mL] | MIC (A. baumannii strains) [µg/mL] | MIC (K. pneumoniae strains) [µg/mL] | MIC (H. influenzae strains; [11]) [µg/mL] | MIC (H. influenzae strains; [12]) [µg/mL] | also measured
1 | C=CC[C@H]1NC[C@H](C)C[C@@](C)(OC)[C@H](O[C@@H]2OC(C)CC(N(C)C)C2O)[C@@H](C)C(=O)[C@@H](C)C(=O)O[C@H](CC)[C@@]2(C)OC(=O)N(CCCCn3cc(-c4cccc(N)c4)nn3)[C@H]12 (stereo partly drawn) [FSM-11044] | 32 (≈ 37.5 µM) | 1 (≈ 1.17 µM) | > 32 | > 32 | 1 (≈ 1.17 µM) | 1 (≈ 1.17 µM) | 0.125 (≈ 0.146 µM) | 1 (≈ 1.17 µM) | > 32 | > 32 | 0.125 (≈ 0.146 µM) | 0.25 (≈ 0.293 µM) | 32 (≈ 37.5 µM) | 8 (≈ 9.37 µM) | 2 (≈ 2.34 µM) | 8 (≈ 9.37 µM) | –
2 | CC[C@H]1OC(=O)[C@H](C)C(=O)[C@H](C)[C@@H](O[C@@H]2OC(C)CC(N(C)C)C2O)[C@](C)(OC)C[C@@H](C)CN[C@H](C)[C@H]2N(C/C=C/Cn3cc(-c4ccccn4)nn3)C(=O)O[C@]12C (stereo partly drawn) [FSM-70153] | 4 (≈ 4.93 µM) | 1 (≈ 1.23 µM) | > 32 | > 32 | 4 (≈ 4.93 µM) | 2 (≈ 2.46 µM) | 0.125 (≈ 0.154 µM) | 4 (≈ 4.93 µM) | > 32 | > 32 | ≤ 0.0625 | 0.25 (≈ 0.308 µM) | 16 (≈ 19.7 µM) | 2 (≈ 2.46 µM) | 0.5 (≈ 0.616 µM) | 2 (≈ 2.46 µM) | –
3 | CC[C@H]1OC(=O)[C@H](C)C(=O)[C@H](C)[C@@H](O[C@@H]2OC(C)CC(N(C)C)C2O)[C@](C)(OC)C[C@@H](C)CN[C@H](CCN(C)C)[C@H]2N(CCCCn3cc(-c4cccc(N)c4)nn3)C(=O)O[C@]12C (stereo partly drawn) [FSM-11052] | > 32 | 8 (≈ 9.04 µM) | > 32 | > 32 | 4 (≈ 4.52 µM) | 32 (≈ 36.2 µM) | 0.5 (≈ 0.565 µM) | 0.5 (≈ 0.565 µM) | > 32 | > 32 | 0.125 (≈ 0.141 µM) | 2 (≈ 2.26 µM) | > 32 | 16 (≈ 18.1 µM) | 8 (≈ 9.04 µM) | 32 (≈ 36.2 µM) | –
4 | CC[C@H]1OC(=O)[C@H](C)C(=O)[C@H](C)[C@@H](O[C@@H]2OC(C)CC(N(C)C)C2O)[C@](C)(OC)CC(C)(F)CN[C@H](C)[C@H]2N(CCCCn3cc(-c4cccc(N)c4)nn3)C(=O)O[C@]12C (stereo partly drawn) [FSM-30686] | 32 (≈ 37.8 µM) | 8 (≈ 9.46 µM) | > 32 | > 32 | 4 (≈ 4.73 µM) | 8 (≈ 9.46 µM) | 0.5 (≈ 0.591 µM) | 4 (≈ 4.73 µM) | > 32 | > 32 | 0.25 (≈ 0.295 µM) | 0.5 (≈ 0.591 µM) | > 32 | 8 (≈ 9.46 µM) | 2 (≈ 2.36 µM) | 8 (≈ 9.46 µM) | –
5 | CC[C@H]1OC(=O)[C@H](C)C(O)[C@H](C)[C@@H](O[C@@H]2OC(C)CC(N(C)C)C2O)[C@](C)(OC)C[C@@H](C)CN[C@H](C)[C@H]2N(CCCCn3cc(-c4cccc(N)c4)nn3)C(=O)O[C@]12C (stereo partly drawn) [FSM-21340] | 4 (≈ 4.82 µM) | 16 (≈ 19.3 µM) | > 32 | > 32 | > 32 | 16 (≈ 19.3 µM) | 0.5 (≈ 0.602 µM) | > 32 | > 32 | > 32 | 0.5 (≈ 0.602 µM) | 8 (≈ 9.64 µM) | 8 (≈ 9.64 µM) | 2 (≈ 2.41 µM) | 1 (≈ 1.2 µM) | 4 (≈ 4.82 µM) | –
6 | CC[C@H]1OC(=O)[C@H](C)C(=O)[C@H](C)[C@@H](O[C@@H]2OC(C)CC(N(C)C)C2O)[C@](C)(OC)C[C@@H](C)CN(C)[C@H](C)[C@H]2N(CCCCn3cc(-c4cccc(N)c4)nn3)C(=O)O[C@]12C (stereo partly drawn) [FSM-21339] | 16 (≈ 19 µM) | 2 (≈ 2.38 µM) | > 32 | > 32 | 4 (≈ 4.75 µM) | 2 (≈ 2.38 µM) | 0.125 (≈ 0.148 µM) | 1 (≈ 1.19 µM) | > 32 | > 32 | ≤ 0.0625 | 0.5 (≈ 0.594 µM) | 32 (≈ 38 µM) | 4 (≈ 4.75 µM) | 2 (≈ 2.38 µM) | 8 (≈ 9.5 µM) | –
7 | CC[C@H]1OC(=O)[C@H](C)C(=O)[C@H](C)[C@@H](O[C@@H]2OC(C)CC(N(C)C)C2O)[C@](C)(OC)CC(C)N[C@H](C)[C@H]2N(CCCCn3cc(-c4cccc(N)c4)nn3)C(=O)O[C@]12C (stereo partly drawn) [FSM-30690] | – | – | – | – | – | – | – | – | – | – | – | – | – | – | – | – | MIC E. coli (ATCC 25922) (E. coli strains; E. coli ATCC 25922): >32 µg/mL; MIC S. aureus (183) (S. aureus strains; S. aureus 183): >32 µg/mL; MIC S. aureus (506) (S. aureus strains; S. aureus 506): >32 µg/mL; MIC S. aureus (1708) (S. aureus strains; S. aureus 1708): >32 µg/mL; MIC S. aureus (ATCC 29213) (S. aureus strains; S. aureus ATCC 29213): >32 µg/mL; MIC S. aureus (USA300) (S. aureus strains; S. aureus USA300): >32 µg/mL; MIC S. pneumonae (160) (S. pneumoniae strains; S. pneumoniae 160): >32 µg/mL; MIC S. pneumoniae (1509) (S. pneumoniae strains; S. pneumoniae 1509): >32 µg/mL; MIC S. pneumoniae (1533) (S. pneumoniae strains; S. pneumoniae 1533): >32 µg/mL; MIC S. pneumoniae (1537) (S. pneumoniae strains; S. pneumoniae 1537): >32 µg/mL; MIC S. pneumoniae (49619) (S. pneumoniae strains; S. pneumoniae 49619): >32 µg/mL; MIC E. faecalis (29212) (E. faecalis strains): >32 µg/mL; MIC A. baumannii (BAA747-1) (A. baumannii strains; A. baumannii BAA747-1): >32 µg/mL; MIC K. pneumoniae (10031) (K. pneumoniae strains): >32 µg/mL; MIC H. influenzae (49247) (H. influenzae strains; H. influenzae 49247): >32 µg/mL; MIC H. influenzae (49766) (H. influenzae strains; H. influenzae 49766): >32 µg/mL
8 | CC[C@H]1OC(=O)[C@H](C)C(O)[C@H](C)[C@@H](O[C@@H]2OC(C)CC(N(C)C)C2O)[C@](C)(OC)C[C@@H](C)CN(C)[C@H](C)[C@H]2N(CCCCn3cc(-c4cccc(N)c4)nn3)C(=O)O[C@]12C (stereo partly drawn) [FSM-21335] | 32 (≈ 37.9 µM) | > 32 | > 32 | > 32 | > 32 | 32 (≈ 37.9 µM) | 0.25 (≈ 0.296 µM) | > 32 | > 32 | > 32 | 1 (≈ 1.18 µM) | 16 (≈ 19 µM) | > 32 | 4 (≈ 4.74 µM) | 4 (≈ 4.74 µM) | 32 (≈ 37.9 µM) | –
9 | C=CC[C@@H]1[C@H]2N(CCCCn3cc(-c4cccc(N)c4)nn3)C(=O)O[C@]2(C)[C@@H](CC)OC(=O)[C@H](C)C(=O)[C@H](C)[C@@H](O[C@@H]2OC(C)CC(N(C)C)C2O)[C@](C)(OC)C[C@@H](C)CN1C (stereo partly drawn) [FSM-11094] | > 32 | 8 (≈ 9.22 µM) | > 32 | > 32 | 16 (≈ 18.4 µM) | 8 (≈ 9.22 µM) | 1 (≈ 1.15 µM) | > 32 | > 32 | > 32 | 2 (≈ 2.3 µM) | 4 (≈ 4.61 µM) | > 32 | 16 (≈ 18.4 µM) | 8 (≈ 9.22 µM) | 16 (≈ 18.4 µM) | –
10 | CC[C@H]1OC(=O)C(C)(F)C(=O)[C@H](C)[C@@H](O[C@@H]2OC(C)CC(N(C)C)C2O)[C@](C)(OC)CC(C)(F)CN[C@H](C)[C@H]2N(CCCCn3cc(-c4cccc(N)c4)nn3)C(=O)O[C@]12C (stereo partly drawn) [FSM-30704] | 32 (≈ 37 µM) | 2 (≈ 2.31 µM) | > 32 | > 32 | 2 (≈ 2.31 µM) | 4 (≈ 4.63 µM) | 0.25 (≈ 0.289 µM) | 1 (≈ 1.16 µM) | > 32 | > 32 | 0.25 (≈ 0.289 µM) | 0.5 (≈ 0.579 µM) | > 32 | 16 (≈ 18.5 µM) | 2 (≈ 2.31 µM) | 8 (≈ 9.26 µM) | –
11 | CC[C@H]1OC(=O)[C@H](Cc2cncs2)C(=O)[C@H](C)[C@@H](O[C@@H]2OC(C)CC(N(C)C)C2O)[C@](C)(OC)C[C@@H](C)CN[C@H](C)[C@H]2N(CCCCn3cc(-c4cccc(N)c4)nn3)C(=O)O[C@]12C (stereo partly drawn) [FSM-56216] | 32 (≈ 35.1 µM) | 32 (≈ 35.1 µM) | > 32 | > 32 | 16 (≈ 17.6 µM) | 32 (≈ 35.1 µM) | 2 (≈ 2.19 µM) | 32 (≈ 35.1 µM) | > 32 | > 32 | 1 (≈ 1.1 µM) | 8 (≈ 8.78 µM) | > 32 | 8 (≈ 8.78 µM) | 4 (≈ 4.39 µM) | 16 (≈ 17.6 µM) | –
12 | CC[C@H]1OC(=O)[C@H](CC(=O)OC(C)(C)C)C(=O)[C@H](C)[C@@H](O[C@@H]2OC(C)CC(N(C)C)C2O)[C@](C)(OC)C[C@@H](C)CN[C@H](C)[C@H]2N(CCCCn3cc(-c4cccc(N)c4)nn3)C(=O)O[C@]12C (stereo partly drawn) [FSM-56178] | > 32 | > 32 | > 32 | > 32 | > 32 | > 32 | 8 (≈ 8.62 µM) | > 32 | > 32 | > 32 | > 32 | > 32 | > 32 | > 32 | > 32 | > 32 | –
